Results taken from patent US12320799B2, “Methods of measuring signaling pathway activity for selection of therapeutic agents” (Celcuity Inc., priority 2017, dated 2025).

How the values were obtained:
Assay type in all cases: cell-based, human
ALK signaling pathway = assay: CELx multiple pathway test, impedance biosensor cell adhesion, FAM150A/Ceritinib pair; conditions: activator FAM150A
Description: (§1) Biosensor and transducer: A 96-well impendence E-Plate (ACEA, San Diego, CA) was placed onto an xCELLigence RTCA MP Station impendence biosensor (ACEA, San Diego, CA). The biosensor measured simultaneously the impedance of every well. The change in impedance for a particular well is proportional to the number of cells and type of attachment the cells have with the impedance microplate. Changes in impedance indicate a response to perturbation of these small cell populations. Coatings: The 96-E-Plate were wells were coated with fibronectin and or collagen. Collagen is purchased from Advanced BioMatrix (Carlsbad, CA) and fibronectin from Sigma-Aldrich (St. Louis, MO). Tissue and cell samples: A total of 18 samples of human tumor cells from breast, lung, colon, ovarian, kidney, bladder cancer were studied. For each of these six different cancer types, tumor cell samples from three different patients were tested. Any biomarkers that are used to guide selection of targeted therapy are listed in Table 18 for each patient if they were present. Signaling Pathways activator agent and targeted therapeutic pairs: Eleven different signaling pathways were studied in each human tumor cell sample using […] signaling pathway activator agent and targeted therapeutic pairs. Each of the signaling pathway activator agent and targeted therapeutic pairs affect the same signaling pathway. Each of the signaling pathway activator agents is a well-characterized and specific agonist of its associated signaling pathway and each of the targeted therapeutic agents is a well-characterized and specific antagonist of the same associated signaling pathway. The signaling pathway activator agents and targeted therapeutics used to characterize the activity level of the associated signaling pathway are summarized in Table 16 below:
(§2) Other Reagents: Standard media antibiotics (e.g. penicillin, streptomycin) and other buffers were purchased and used as delivered from ATCC (Manassas, VA, USA) or Life Technologies (Grand Island, NY). Procedure: For each test of a patient cell sample with a pair of signaling pathway activator and targeted therapeutic agents, six wells were seeded with approximately 15,000 cells in 120 uL culture media. Twenty microliters of the targeted therapeutic agent were added to two wells of each patient's cells and 20 microliters of standard media were added to the other four wells for each patient 18 hours in advance of addition of the signaling pathway activator agent. Signaling pathway stimulation was initiated with the addition of 20 ul of the signaling pathway activator agent in the two wells that received a targeted therapeutic agent and in two additional wells for each patient's set of cells without the targeted therapeutic. The impedance recording of attachment and adhesion change was performed at 37° C., 5% C02. Data was recorded on a continuous basis throughout the test, where the data presented is from the initial baseline level of cell attachment compared to the subsequent effects following the targeted therapeutic agent and the signaling pathway activator agent additions on the 18 different patient samples.
(§3) For each of the 18 patient samples, up to 11 different signaling pathways were tested. The output value represents the difference between the amount of cell adhesion change resulting from addition of the signaling pathway activator agent and the amount of cell adhesion change resulting from addition of the targeted therapeutic agent.

Axl signaling pathway = assay: CELx multiple pathway test, impedance biosensor cell adhesion, Gas6/R428 (BGB324) pair; conditions: activator Gas6
Description: as §1, §2, §3

[1] = test system: HER1, HER3 and c-Met pathways; assay: CELx test of multiple pathways simultaneously (EGF, NRG1, HGF in combination), impedance biosensor
Description: Biosensor and transducer: A 96-well impendence E-Plate (ACEA, San Diego, CA) was placed onto an xCELLigence RTCA MP Station impendence biosensor (ACEA, San Diego, CA). The biosensor measured simultaneously the impedance of every well. The change in impedance for a particular well is proportional to the number of cells and type of attachment the cells have with the impedance microplate. Changes in impedance indicate a response to perturbation of these small cell populations. Coatings: The 96-E-Plate were wells were coated with fibronectin and or collagen. Collagen is purchased from Advanced BioMatrix (Carlsbad, CA) and fibronectin from Sigma-Aldrich (St. Louis, MO). Tissue and cell samples: Six samples of human tumor cells from breast cancer were studied (C1815, C1596, C1838, C135, C42, C264). Any biomarkers that are used to guide selection of targeted therapy are listed in Table 22 for each patient if they were present. Signaling Pathways activator agent and targeted therapeutic pairs: In each human tumor cell sample, gross signaling activity of the HER1, HER3 and c-Met pathways initiated by three activator agents (EGF, NRG1, HGF) in combination was quantified. […] Each of the signaling pathway activator agents is a well-characterized and specific agonist of its associated signaling pathway. […] The fifth targeted therapeutic tested, taselisib, is an inhibitor that binds to PI3k, which downstream of the HER family and c-Met receptors. Other Reagents: Standard media, antibiotics (e.g. penicillin, streptomycin), and other buffers were purchased and used as delivered from ATCC (Manassas, VA, USA) or Life Technologies (Grand Island, NY). Procedure:
For each test of a patient cell sample with a signaling pathway activator(s) and targeted therapeutic agent(s), six or eight wells were seeded with approximately 15,000 cells in 120 uL culture media; six wells were seeded when only a single drug was evaluated and eight wells were seeded when two drugs were evaluated. When only a single drug was evaluated, 20 uL of the targeted therapeutic agent was added to two wells of each patient's cells and the final concentration of the therapeutic agent in the two wells with the single therapeutic agent was 500 nanomolar. When two therapeutic agents were evaluated, two wells of patient cells received 20 uL of the combined therapeutic agents at a concentration of 500 nanomolar each and an additional two wells of patient cells received 20 uL of the combined therapeutic agents at a concentration of 50 nanomolar each. Twenty microliters of standard media were added to the other four wells for each patient 18 hours in advance of addition of the signaling pathway activator agent(s). Signaling pathway stimulation was initiated with the addition of 20 ul of the signaling pathway activator agent(s) in the two or four wells that received a targeted therapeutic agent(s) and two additional wells for each patient's set of cells. The impedance recording of attachment and adhesion change was performed at 37° C., 5% CO2. Data was recorded on a continuous basis throughout the test, where the data presented if from the initial baseline level of cell attachment compared to the subsequent effects following the targeted therapeutic agent(s) and the signaling pathway activator agent(s) additions on the nine different patient samples.
as §3, with “six” for “18”, “three” for “up to 11”, “pathways (HER1, HER3, c-Met)” for “pathways”, “activated simultaneously.” for “tested.”, “agent(s)” for “agent”, “agent(s).” for “agent.”

[2] = test system: HER2/HER1 signaling pathway; assay: CELx multiple pathway test, impedance biosensor cell adhesion, EGF/Pertuzumab pair; conditions: activator EGF
Description: as §1
as §2, with “samples. Results:” for “samples.”
as §3, with “Table 17 presents the results, expressed as an output value, for each of the 167 tests performed using the methods described above. For” for “For”

[3] = test system: HER2/HER3 signaling pathway; assay: CELx multiple pathway test, impedance biosensor cell adhesion, NRG1/Pertuzumab pair; conditions: activator NRG1
Description: as §1, §2, §3

HER2 signaling pathway = assay: CELx multiple pathway test, impedance biosensor cell adhesion, Pertuzumab; conditions: no activator listed
Description: as §1
as §2, with “samples. Results:” for “samples.”
as §3, with “Table 17 presents the results, expressed as an output value, for each of the 167 tests performed using the methods described above. For” for “For”

Cc1cc(Nc2ncc(Cl)c(Nc3ccccc3S(=O)(=O)C(C)C)n2)c(OC(C)C)cc1C1CCNCC1 [Ceritinib]
output value (ALK signaling pathway; C2 breast tumor cells): 5 | output value (ALK signaling pathway; C21 breast tumor cells): 10 | output value (ALK signaling pathway; C23 lung tumor cells): 16 | output value (ALK signaling pathway; C24 lung tumor cells): 2 | output value (ALK signaling pathway; C25 lung tumor cells): 8 | output value (ALK signaling pathway; C34 breast tumor cells): 15 | output value (ALK signaling pathway; C54 ovarian tumor cells): 14 | output value (ALK signaling pathway; C69 ovarian tumor cells): 16 | output value (ALK signaling pathway; C77 ovarian tumor cells): 37

Nc1nc(Nc2ccc3c(c2)CC[C@@H](N2CCCC2)CC3)nn1-c1cc2c(nn1)-c1ccccc1CCC2 [R428 (BGB324)]
output value (Axl signaling pathway; C2 breast tumor cells): 5 | output value (Axl signaling pathway; C21 breast tumor cells): 6 | output value (Axl signaling pathway; C23 lung tumor cells): 24 | output value (Axl signaling pathway; C24 lung tumor cells): 7 | output value (Axl signaling pathway; C25 lung tumor cells): 30 | output value (Axl signaling pathway; C34 breast tumor cells): 44 | output value (Axl signaling pathway; C54 ovarian tumor cells): 12 | output value (Axl signaling pathway; C69 ovarian tumor cells): 10 | output value (Axl signaling pathway; C77 ovarian tumor cells): 5

Cc1nc(-c2cn3c(n2)-c2ccc(-c4cnn(C(C)(C)C(N)=O)c4)cc2OCC3)n(C(C)C)n1 [taselisib]
Output value (cell adhesion change, activator agents minus targeted therapeutic agent(s)) ([1]; breast cancer patient sample C42, agent(s) 500 nM each): 246 | Output value (cell adhesion change, activator agents minus targeted therapeutic agent(s)) ([1]; breast cancer patient sample C135, agent(s) 500 nM each): 583 | Output value (cell adhesion change, activator agents minus targeted therapeutic agent(s)) ([1]; breast cancer patient sample C264, agent(s) 500 nM each): 276 | Output value (cell adhesion change, activator agents minus targeted therapeutic agent(s)) ([1]; breast cancer patient sample C1596, agent(s) 500 nM each): 242 | Output value (cell adhesion change, activator agents minus targeted therapeutic agent(s)) ([1]; breast cancer patient sample C1815, agent(s) 500 nM each): 385 | Output value (cell adhesion change, activator agents minus targeted therapeutic agent(s)) ([1]; breast cancer patient sample C1838, agent(s) 500 nM each): 271

Pertuzumab
output value ([2]; C2 breast tumor cells): 28 | output value ([2]; C21 breast tumor cells): 40 | output value ([2]; C23 lung tumor cells): −6 | output value ([2]; C24 lung tumor cells): 54 | output value ([2]; C25 lung tumor cells): 38 | output value ([2]; C34 breast tumor cells): −176 | output value ([2]; C54 ovarian tumor cells): 180 | output value ([2]; C62 colorectal tumor cells): 0 | output value ([2]; C69 ovarian tumor cells): −115 | output value ([2]; C71 colorectal tumor cells): −10 | output value ([2]; C72 colorectal tumor cells): 0 | output value ([2]; C77 ovarian tumor cells): 67 | output value ([2]; C81 bladder tumor cells): 1 | output value ([2]; C82 bladder tumor cells): 1 | output value ([2]; C87 bladder tumor cells): 46 | output value ([2]; C88 kidney tumor cells): −24 | output value ([2]; C90 kidney tumor cells): 35 | output value ([2]; C92 kidney tumor cells): 3 | output value ([3]; C2 breast tumor cells): 426 | output value ([3]; C21 breast tumor cells): −48 | output value ([3]; C23 lung tumor cells): 61 | output value ([3]; C24 lung tumor cells): 13 | output value ([3]; C25 lung tumor cells): 9 | output value ([3]; C54 ovarian tumor cells): 356 | output value ([3]; C62 colorectal tumor cells): 24 | output value ([3]; C71 colorectal tumor cells): 175 | output value ([3]; C72 colorectal tumor cells): 21 | output value ([3]; C77 ovarian tumor cells): 294 | output value ([3]; C81 bladder tumor cells): 4 | output value ([3]; C82 bladder tumor cells): 5 | output value ([3]; C87 bladder tumor cells): 477 | output value ([3]; C88 kidney tumor cells): 46 | output value ([3]; C90 kidney tumor cells): −3 | output value ([3]; C92 kidney tumor cells): −20 | output value (HER2 signaling pathway; C2 breast tumor cells): 454 | output value (HER2 signaling pathway; C21 breast tumor cells): −9 | output value (HER2 signaling pathway; C23 lung tumor cells): −55 | output value (HER2 signaling pathway; C24 lung tumor cells): 66 | output value (HER2 signaling pathway; C25 lung tumor cells): 47 | output value (HER2 signaling pathway; C34 breast tumor cells): −90 | output value (HER2 signaling pathway; C54 ovarian tumor cells): 537 | output value (HER2 signaling pathway; C62 colorectal tumor cells): 24 | output value (HER2 signaling pathway; C69 ovarian tumor cells): −20 | output value (HER2 signaling pathway; C71 colorectal tumor cells): 165 | output value (HER2 signaling pathway; C72 colorectal tumor cells): 21 | output value (HER2 signaling pathway; C77 ovarian tumor cells): 361 | output value (HER2 signaling pathway; C81 bladder tumor cells): 5 | output value (HER2 signaling pathway; C82 bladder tumor cells): 6 | output value (HER2 signaling pathway; C87 bladder tumor cells): 523 | output value (HER2 signaling pathway; C88 kidney tumor cells): 16 | output value (HER2 signaling pathway; C90 kidney tumor cells): 32 | output value (HER2 signaling pathway; C92 kidney tumor cells): 23
